The record followed here is patent US20180237362A1, “NOVEL POLYGODIAL ANALOGS FOR THE TREATMENT OF CANCER AND OTHER PROLIFERATIVE DISEASES” (THE BOARD OF REGENTS OF THE UNIVERSITY OF TAXAS SYSTEM, priority 2015, published 2018).

Read-outs that look alike come from different tables or passages of the source.

Data set [1] concerns human A549 non-small cell lung cancer (NSCLC). The experiment in a line: MTT antiproliferative assay, A549. Type of data set: cell-based. The following applies: for GI50: 72 h treatment, MTT assay, sextuplicates, read-out: GI50 in vitro values, A549. On the procedure: (§1) Human mammary carcinoma MCF-7 (ATCC HTB22) cells were cultured in RPMI supplemented with 10% FBS. The U87 cells (ATCC HTB-14) were cultured in DMEM culture medium, while the A549 cells (DSMZ ACC107) were cultured in RPMI culture medium supplemented with 10% heat-inactivated FBS. The GBM Hs683 (ATCC HTB-138) cells were cultivated in DMEM supplemented with 10% FBS. The human uterine sarcoma MES-SA (ATCC CRL1966) and MES-SA/D×5 cells were cultured in RPMI-1640 medium supplemented with 10% FBS with MES SA/D×5 maintained in the presence of 500 nM Doxorubicin (Sigma). SKMEL-28 cells (ATCC HTB72) and U373 GBM cells (ECACC 08061901) were cultured in RPMI culture medium supplemented with 10% heat-inactivated FBS. Cell culture media were supplemented with 4 mM glutamine (Lonza code BE17-605E), 100 μg/mL gentamicin (Lonza code 17-5182), and penicillin-streptomycin (200 units/ml and 200 μg/ml) (Lonza code 17-602E). The MDA-MB-231 (ATCC HTB-26) epithelial mammary adenocarcinoma cells were cultured in Eagle's minimum essential medium (EMEM; Invitrogen) containing 5% fetal calf serum (FCS, Cambrex), 2 mM L-glutamine (Invitrogen), 0.06% HEPES (Invitrogen) and penicillin (50 IU/ml)/streptomycin (50 µg/ml; Invitrogen) at 37° C. in a humidified atmosphere of 5% CO2 in air. Transformed mouse NPCs were cultured in suspension under neurosphere conditions at 37° C. in a humidified atmosphere of […] and 5% CO2 in DMEM F12 (Invitrogen 11320-074) supplemented with 1×B27 supplement (Invitrogen 17504-044), 5% penicillin-streptomycin (Biochrom 10378-017), 10 ng/ml EGF (R&D systems 236-EG), 10 ng/ml FGF (PeproTech 100-18B).
(§2) Antiproliferative properties of the synthesized compounds were evaluated by the MTT assay. All compounds were dissolved in DMSO at a concentration of either 100 μM or 50 μM prior to cell treatment. The cells were trypsinized and seeded at various cell concentrations depending on the cell type. The cells were grown for 24 h to 72 h, treated with compounds at concentrations ranging from 0.001 to 100 μM and incubated for 48 or 72 h in 100 or 200 μL media depending on the cell line used. The number of experiments and replicates varied depending on the cell line. Cells treated with 0.1% DMSO were used as a negative control; 1 μM PAO was used as a positive control.
(§3) The synthesized C12-Wittig derivatives were evaluated for antiproliferative activities in a panel of cancer cell lines that included apoptosis-resistant human U373 glioblastoma (GBM) (Lefranc et al., 2013), human A549 non-small cell lung cancer (NSCLC) and human SKMEL-28 melanoma (Mathieu et al., 2009) as well as apoptosis-sensitive human Hs683 anaplastic oligodendroglioma (Lefranc et al., 2013) and human MCF-7 breast cancer (Frolova et al., 2013).
In general terms: Formazan colour is commonly taken as a measure of viable cells.

Another data set concerns human SKMEL-28 melanoma. The experiment in a line: MTT antiproliferative assay, SKMEL-28. It is filed as cell-based. The settings on record: sextuplicates, read-out: GI50 in vitro values, SKMEL-28. On the procedure: as §1, §2, §3
In data set [2] the test system is human MCF-7 breast cancer. The experiment in a line: MTT antiproliferative assay, MCF-7. The following applies: sextuplicates, read-out: GI50 in vitro values, MCF-7. It is filed as cell-based. On the procedure: as §1, §2, §3
In data set [3] the test system is human U373 glioblastoma (GBM). The experiment in a line: MTT antiproliferative assay, U373. Type of data set: cell-based. The settings on record: 72 h treatment, sextuplicates, read-out: GI50 in vitro values, U373. On the procedure: as §1, §2, §3
In data set [4] the test system is human Hs683 anaplastic oligodendroglioma. The experiment in a line: MTT antiproliferative assay, Hs683. Type of data set: cell-based. The settings on record: sextuplicates, read-out: GI50 in vitro values, Hs683. The protocol:
as §1, §2, §3

Data set [5] has as its system panel of cancer cell lines (A549, SKMEL-28, MCF-7, U373, Hs683). The experiment in a line: MTT antiproliferative assay, panel of five cancer cell lines. It is filed as cell-based, human. The following applies: mean over five cell lines, 72 h treatment, MTT assay, read-out: GI50 in vitro values, Mean + SEM. On the procedure:
as §2, §3

The next data set has as its system OSCC cell line HSC3. The experiment in a line: Cell viability (Cell Titer 96 Aqueous), HSC3. The following applies: 48 hours; potency order P10, polygodial, P3. Type of data set: cell-based, human. The source says:
(§4) Human cancer cell lines were obtained from the American Type Culture Collection (ATCC, Manassas, Va., USA), the European Collection of Cell Culture (ECACC, Salisbury, UK) and the Deutsche Sammlung von Mikroorganismen und Zellkulturen (DSMZ, Braunschweig, Germany). The OSCC cell lines, Cal27 and HSC3 are derived from human primary tongue tumor. Cal27 cells were obtained from the American Type Culture Collection (Rockville, Md.). HSC3 cells were provided by Dr. Brian Schmidt. HeLa cells (cervical cancer cell line) were obtained from ATCC. Cells were cultured in DMEM, containing 10% FBS and 1% penicillin-streptomycin media, at 37° C. in 5% CO2. All cells were authenticated by Genetic DNA Laboratories.
(§5) The cytotoxicity of polygodial, P10, P3, and P27 in Cal27, HSC3, and HeLa cells was examined in vitro using a colorimetric assay, Cell Titer 96® Aqueous Non-Radioactive Cell Proliferation Assay. […] GraphPad Prism4 was used to perform statistical analysis.

In data set [6] the test system is cervical cancer cell line HeLa. The experiment in a line: Cell viability (Cell Titer 96 Aqueous), HeLa. It is filed as cell-based, human. The following applies: 48 hours; potency order P10, polygodial, P3.
From the text: as §4, §5

The subject of the next data set is HeLa-derived tumors. The experiment in a line: Mouse xenograft model, HeLa. Type of data set: in vivo, athymic nude mice. The protocol:
Six-week old female athymic nude mice were used in laminar air-flow cabinet in pathogen-free conditions. They were acclimated for one week prior to the start of the study and kept at controlled temperature and humidity, with food and water. Mice were injected subcutaneously in the flank with 2×10^6 Cal27 cells or HeLa cells in 0.1 mL of sterile PBS. When the tumors reached 100 mm^3 (Cal27) and 150 mm^3 (HeLa), the mice were stratified into 4 groups, […], polygodial, P10, P3 and P27 at the concentrations noted in the figure legends.

Data set [7] addresses T1, CHO cells that overexpress TRPV1 (CHO-TRPV1) (Homo sapiens, UniProt Q8NER1).
T1 construct: expressed in transfected cells; host or cells: CHO cells
The experiment in a line: Calcium imaging, CHO-TRPV1. The following applies: polygodial 80 μM, P10 4 μM, P3 50 μM. It is filed as cell-based. On the procedure: CHO cells that overexpress TRPV1 (CHO-TRPV1) were treated with polygodial (80 μM), P10 ([…]), or P3 (50 μM) and calcium influx was measured. Cells were also pre-treated with the TRPV1 antagonist capsazepine (CPZ; 10 μM) to determine if calcium influx via TRPV1 was inhibited. 3 μM ionomycin was used as a positive control. Fluo-4 Direct Calcium Assay Kit and Sweptfield confocal with Nikon Ti were used to visualize calcium influx and the images were analyzed using ImageJ software.

The next data set has as its system HeLa cells. The experiment in a line: Calcium imaging, HeLa. The settings on record: polygodial 80 μM, P10 4 μM, P3 50 μM. It is filed as cell-based, human.
A further data set relates to HSC3 cells. The experiment in a line: Calcium imaging, HSC3. Type of data set: cell-based, human.
Data set [8] has as its system U87 glioblastoma cell cultures. The experiment in a line: MTT growth curves, U87. The following applies: apoptosis-resistant U87 GBM; concentrations up to 100 μM. It is filed as cell-based, human. On the procedure: as §1
Antiproliferative properties of the synthesized compounds were evaluated by the MTT assay. All compounds were dissolved in DMSO at a concentration of either 100 μM or 50 μM prior to cell treatment. The cells were trypsinized and seeded at various cell concentrations depending on the cell type. […]

T1 sequence (Q8NER1 whole entry): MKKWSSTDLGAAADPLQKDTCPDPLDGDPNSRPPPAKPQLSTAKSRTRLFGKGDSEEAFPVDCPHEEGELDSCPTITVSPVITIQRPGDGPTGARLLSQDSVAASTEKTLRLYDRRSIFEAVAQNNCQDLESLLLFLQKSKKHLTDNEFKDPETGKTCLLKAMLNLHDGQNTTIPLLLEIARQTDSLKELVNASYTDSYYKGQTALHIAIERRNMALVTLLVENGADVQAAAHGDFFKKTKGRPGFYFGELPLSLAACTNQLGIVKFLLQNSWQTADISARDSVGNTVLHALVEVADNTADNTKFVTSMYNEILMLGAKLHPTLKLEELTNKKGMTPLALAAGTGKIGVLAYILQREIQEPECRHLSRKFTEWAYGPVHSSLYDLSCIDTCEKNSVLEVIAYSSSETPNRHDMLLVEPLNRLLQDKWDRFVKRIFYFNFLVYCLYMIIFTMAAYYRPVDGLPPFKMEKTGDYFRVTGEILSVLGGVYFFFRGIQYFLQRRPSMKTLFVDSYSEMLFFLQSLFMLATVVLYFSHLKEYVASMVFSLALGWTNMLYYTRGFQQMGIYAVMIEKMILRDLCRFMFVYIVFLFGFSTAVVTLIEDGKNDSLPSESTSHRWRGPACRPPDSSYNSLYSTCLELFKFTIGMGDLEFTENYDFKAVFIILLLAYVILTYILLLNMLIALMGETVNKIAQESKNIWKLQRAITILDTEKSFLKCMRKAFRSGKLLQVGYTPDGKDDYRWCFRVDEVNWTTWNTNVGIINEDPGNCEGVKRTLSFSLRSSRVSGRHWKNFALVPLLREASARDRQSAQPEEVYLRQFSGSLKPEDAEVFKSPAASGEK

The term GI50 denotes the concentration giving 50% growth inhibition. Consider `COC(=O)/C=C/C1=CCC2C(C)(C)CCC[C@]2(C)[C@@H]1C=O` (stereo partly shown), for which the GI50 was determined as 29 ± 1 µM in data set [1] (Homo sapiens, A549); 70 ± 1 µM in the data set on human SKMEL-28 melanoma (Homo sapiens, SK-MEL-28, 72 h treatment); 28 ± 1 µM in [2] (Homo sapiens, MCF7, 72 h treatment); 39 ± 1 µM in data set [3] (Homo sapiens, U373 MG); 33 ± 0.5 µM in data set [4] (Homo sapiens, Hs 683, 72 h treatment); 40 ± 8 µM in data set [5] (Homo sapiens).
For `CCOC(=O)/C=C/C1=CCC2C(C)(C)CCC[C@]2(C)[C@@H]1C=O` (stereo partly shown) [Compound 6], the GI50 in data set [1] was found to be 25 µM; in the data set with human SKMEL-28 melanoma (72 h treatment) it was 29 µM; in [2] (72 h treatment), 30 µM; in [3], 37 µM; in data set [4] (72 h treatment), 29 µM; in data set [5], 30 ± 2 µM.
As for `CCOC(=O)C(C)=CC1=CCC2C(C)(C)CCCC2(C)C1C=O` (stereo not shown) [Compound 7], the GI50 came out at 26 µM in [1]; 37 µM with human SKMEL-28 melanoma (72 h treatment); 27 µM in [2] (72 h treatment); 37 µM in data set [3]; 28 µM in data set [4] (72 h treatment); 31 ± 2 µM in data set [5].
On to `CC(C)(C)OC(=O)/C=C/C1=CCC2C(C)(C)CCC[C@]2(C)[C@@H]1C=O` (stereo partly shown) [Compound 8], for which the GI50 in data set [1] came out at 29 µM; with human SKMEL-28 melanoma (72 h treatment), 41 µM; in [2] (72 h treatment), 32 µM; in [3], 40 µM; in [4] (72 h treatment), 29 µM; in [5] it was 34 ± 3 µM.
`CC1(C)CCCC2(C)C(C=O)C(C=CC(=O)OCc3ccccc3)=CCC12` (stereo not shown) [Compound 9]: the GI50 in data set [1] amounted to 28 µM; in the data set with human SKMEL-28 melanoma (72 h treatment), 39 µM; in [2] (72 h treatment) it was 27 µM; in data set [3], 39 µM; in data set [4] (72 h treatment), 31 µM; in [5], 33 ± 3 µM.
As for `COC(=O)/C=C/C=C/C1=CCC2C(C)(C)CCC[C@]2(C)[C@@H]1C=O` (stereo partly shown) [Compound 10], the GI50 in [1] came out at 29 µM; in the data set on human SKMEL-28 melanoma (72 h treatment), 25 µM; in data set [2] (72 h treatment) it was 31 µM; in data set [3], 27 µM; in data set [4] (72 h treatment), 12 µM; in data set [5], 25 ± 3 µM.
With `CC1(C)CCC[C@@]2(C)C1CC=C(/C=C/C#N)[C@H]2C=O` (stereo partly shown) [Compound 11], the GI50 in data set [1] is 27 µM; with human SKMEL-28 melanoma (72 h treatment), 42 µM; in data set [2] (72 h treatment) it was 31 µM; in data set [3], 36 µM; in data set [4] (72 h treatment) it was 28 µM; in data set [5], 33 ± 3 µM.
In the case of `CC(=O)/C=C/C1=CCC2C(C)(C)CCC[C@]2(C)[C@@H]1C=O` (stereo partly shown) [Compound 12], the GI50 in data set [1] turned out to be 24 µM; in the data set on human SKMEL-28 melanoma (72 h treatment), 28 µM; in data set [2] (72 h treatment), 20 µM; in data set [3], 25 µM; in [4] (72 h treatment) it was 22 µM; in data set [5] it was 24 ± 1 µM.
On to `CC1(C)CCC[C@]2(C)[C@H](C=O)C(C=O)=CC[C@@H]12` [Compound P10, 9-epi-polygodial], for which, in the data set with OSCC cell line HSC3, the “cancer cell viability, HSC3” value is “reduced cancer cell viability in vitro”. For the same compound, the “cancer cell viability, HeLa” value in data set [6] was “reduced cancer cell viability in vitro”. Besides, the “anti-tumor effect, HeLa-derived tumors” value in the data set with HeLa-derived tumors (40 μg/100 μl intra-tumor injection every other day for 18 days, polygodial significantly more efficacious than P3) is listed as “not efficacious in vivo”. For the same compound, in the data set on HeLa-derived tumors (mouse, in vivo), the “adverse effects, HeLa xenograft mice” value was “no adverse effects in vivo”. In [7], the “TRPV1 activation (calcium influx), CHO-TRPV1” value is listed as “do not”. Besides, the “calcium influx, HeLa” value in the data set on HeLa cells is “did not induce calcium influx”. Besides, the “reversal of calcium influx by capsazepine, HSC3” value in the data set with HSC3 cells (CPZ 10 μM) is “not reversed”. Also, the “calcium influx, HSC3” value in the data set with HSC3 cells (polygodial 80 μM, P10 4 μM, P3 50 μM) is “did induce calcium influx”.
Turning to `COc1cc([C@@H]2c3cc4c(cc3[C@H](O)[C@H]3COC(=O)[C@H]23)OCO4)cc(OC)c1OC` [podophyllotoxin, reference compound], in data set [1] (apoptosis-resistant A549 NSCLC, concentrations up to 100 μM), the “effect on proliferation/viability of all cells, A549” value is “no effect on proliferation of ca. 50% of cells”. Also, in data set [8], the “effect on proliferation/viability of all cells, U87” value is given as “no effect on proliferation of ca. 50% of cells”.
